Molecular target: T1, SIRT1 (Homo sapiens, UniProt Q96EB6)
T1 sequence (Q96EB6 1-747): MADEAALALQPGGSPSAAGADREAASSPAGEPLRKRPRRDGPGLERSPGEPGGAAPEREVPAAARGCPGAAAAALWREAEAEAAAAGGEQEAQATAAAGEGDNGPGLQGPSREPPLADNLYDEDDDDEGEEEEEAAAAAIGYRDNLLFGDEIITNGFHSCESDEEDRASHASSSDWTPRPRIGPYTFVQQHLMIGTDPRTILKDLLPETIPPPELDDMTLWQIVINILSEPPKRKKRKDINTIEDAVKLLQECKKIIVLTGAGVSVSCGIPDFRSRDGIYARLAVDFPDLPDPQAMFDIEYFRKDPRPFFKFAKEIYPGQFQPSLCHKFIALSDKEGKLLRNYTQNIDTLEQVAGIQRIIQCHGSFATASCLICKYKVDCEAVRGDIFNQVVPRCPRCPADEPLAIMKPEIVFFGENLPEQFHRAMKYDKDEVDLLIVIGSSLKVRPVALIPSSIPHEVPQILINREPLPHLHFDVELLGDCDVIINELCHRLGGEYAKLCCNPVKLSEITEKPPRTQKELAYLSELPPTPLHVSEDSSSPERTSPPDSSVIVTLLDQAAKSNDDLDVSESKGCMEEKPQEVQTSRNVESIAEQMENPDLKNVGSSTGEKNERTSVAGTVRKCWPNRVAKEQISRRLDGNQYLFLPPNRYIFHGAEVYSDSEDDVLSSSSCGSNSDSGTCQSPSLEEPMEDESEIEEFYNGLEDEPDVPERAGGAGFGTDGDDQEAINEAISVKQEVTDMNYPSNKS
Assay: Mass spectrometry based SIRT1 deacetylation assay (activation)
Type: biochemical
Settings: 10 nM SIRT1, 0.5 μM peptide substrate, 120 μM βNAD+, 25 min at 25° C.
Summary of the method: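 Activation reported as EC1.5, the compound concentration producing 150% of DMSO-control deacetylation, plus maximum fold activation. Readout is mass-spectrometric ratio of deacetylated to acetylated p53-based peptide (0.5 μM) after 25 min, 25 °C, with 120 μM βNAD+ and 10 nM His-tagged human SIRT1, pH 8.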

% Fold Act. (percent maximum fold activation)	EC1.5 (concentration of test compound that results in 150% activation of SIRT1)	SMILES
A (Fold activation >200%)	A (EC1.5<1.0 uM)	Cc1ncccc1-c1ccc2cccc(NC(=O)c3cscn3)c2n1 [Compound 196]
B (Fold Activation <200%)	B (EC1.5 1-25 uM)	O=C(Nc1cccnc1Cl)c1cccc2ccc(-c3cccc(C(F)(F)F)c3)nc12 [Compound 57]
A (Fold activation >200%)	A (EC1.5<1.0 uM)	O=C(Nc1cccc2ccc(-c3cccc(C(F)(F)F)c3)nc12)c1cc[nH]n1 [Compound 224]
B (Fold Activation <200%)	B (EC1.5 1-25 uM)	Cc1ccc(-c2ccc3cccc(NC(=O)c4cscn4)c3n2)cc1 [Compound 212]
B (Fold Activation <200%)	A (EC1.5<1.0 uM)	Cc1cnc(NC(=O)c2cccc3ccc(-c4cccnc4)nc23)s1 [Compound 241]
	C (EC1.5>25 uM)	Cn1ccc(C(=O)Nc2cccc3ccc(-c4cncc(F)c4)nc23)n1 [Compound 284]
A (Fold activation >200%)	A (EC1.5<1.0 uM)	O=C(Nc1cccc2ccc(-c3ccccc3OC(F)(F)F)nc12)c1cscn1 [Compound 92]
A (Fold activation >200%)	A (EC1.5<1.0 uM)	Cc1cncc(-c2ccc3cccc(NC(=O)c4cscn4)c3n2)c1 [Compound 214]
	C (EC1.5>25 uM)	O=C(Nc1cccc2ccc(-c3cc(F)cc(C(F)(F)F)c3)nc12)c1ccccn1 [Compound 159]
A (Fold activation >200%)	B (EC1.5 1-25 uM)	O=C(Nc1cccc2ccc(-c3ccccc3O)nc12)c1cscn1 [Compound 174]
	C (EC1.5>25 uM)	O=C(Nc1cccc2ccc(-c3ccncc3)nc12)c1cnccn1 [Compound 155]
A (Fold activation >200%)	A (EC1.5<1.0 uM)	O=C(Nc1cccc2ccc(-c3cccc(N4CCOCC4)c3)nc12)c1cscn1 [Compound 200]
	C (EC1.5>25 uM)	Cc1nnc(NC(=O)c2cccc3ccc(-c4cccnc4)nc23)o1 [Compound 264]
B (Fold Activation <200%)	B (EC1.5 1-25 uM)	O=C(Nc1cccc2ccc(-c3cccc(F)c3)nc12)c1cscn1 [Compound 74]
A (Fold activation >200%)	A (EC1.5<1.0 uM)	O=C(Nc1ccncn1)c1cccc2ccc(-c3ccccc3C(F)(F)F)nc12 [Compound 87]

The remaining lines, values behind:

SMILES	% Fold Act. (percent maximum fold activation)	EC1.5 (concentration of test compound that results in 150% activation of SIRT1)
O=C(Nc1nncs1)c1cccc2ccc(-c3cccc(N4CCOCC4)c3)nc12 [Compound 251]	A (Fold activation >200%)	A (EC1.5<1.0 uM)
O=C(Nc1ccccn1)c1cccc2ncc(-c3ccccc3)nc12 [Compound 118]	B (Fold Activation <200%)	B (EC1.5 1-25 uM)
O=C(NC1CCCC1)c1cccc2ccc(-c3cccc(O[C@@H]4CCNC4)c3)nc12 [Compound 102]	A (Fold activation >200%)	B (EC1.5 1-25 uM)
CS(=O)(=O)c1cccc(-c2ccc3cccc(NCc4cccnc4)c3n2)c1 [Compound 163]		C (EC1.5>25 uM)
O=C(NCc1ccccn1)c1cccc2ccc(-c3cccc(C(F)(F)F)c3)nc12 [Compound 35]	B (Fold Activation <200%)	B (EC1.5 1-25 uM)
c1cncc(CNc2cccc3ccc(-c4cccnc4)nc23)c1 [Compound 145]		C (EC1.5>25 uM)
O=C(Nc1cccc2ccc(-c3ccccc3)nc12)C1CCNCC1 [Compound 43]		C (EC1.5>25 uM)
O=C(Nc1ccccn1)c1cccc2ccc(-c3ccc(C(F)(F)F)cc3)nc12 [Compound 97]		C (EC1.5>25 uM)
CN1CCN(Cc2cccc(C(=O)Nc3cccc4ccc(-c5cccc(C(F)(F)F)c5)nc34)c2)CC1 [Compound 216]	A (Fold activation >200%)	A (EC1.5<1.0 uM)
O=C(Nc1ncnc2ccc(-c3cccc(OC(F)(F)F)c3)nc12)c1cncs1 [Compound 309]	A (Fold activation >200%)	B (EC1.5 1-25 uM)
O=C(Nc1cccc2ccc(-c3cccc(OC(F)(F)F)c3)nc12)c1ccccc1 [Compound 19]		C (EC1.5>25 uM)
O=C(Nc1cccnc1)c1ccc(F)c2ccc(-c3cccc(C(F)(F)F)c3)nc12 [Compound 67]	A (Fold activation >200%)	A (EC1.5<1.0 uM)
O=C(Nc1cccnc1)c1cccc2cnc(-c3cccc(N4CCOCC4)c3)nc12 [Compound 314]	B (Fold Activation <200%)	A (EC1.5<1.0 uM)
FC(F)(F)c1cccc(-c2ccc3cccc(CNC4CCCC4)c3n2)c1 [Compound 143]		C (EC1.5>25 uM)
FC(F)(F)c1cccc(-c2ccc3cccc(CNc4cccnc4)c3n2)c1 [Compound 105]		C (EC1.5>25 uM)
Cc1csc(NC(=O)c2cccc3cnc(-c4cccc(C(F)(F)F)c4)nc23)n1 [Compound 281]	A (Fold activation >200%)	B (EC1.5 1-25 uM)
O=C(Nc1ncnc2ccc(-c3cccc(C(F)(F)F)c3)nc12)c1cccnc1 [Compound 311]	A (Fold activation >200%)	B (EC1.5 1-25 uM)
Cc1nc(NC(=O)c2cccc3ccc(-c4cccc(N5CCOCC5)c4)nc23)sc1C [Compound 240]	A (Fold activation >200%)	A (EC1.5<1.0 uM)
O=C(Nc1ccncc1)c1cccc2ccc(-c3cccnc3)nc12 [Compound 237]		C (EC1.5>25 uM)
O=C(Nc1cccc2ccc(-c3cccc(OC(F)(F)F)c3)nc12)c1ccc(F)cc1 [Compound 22]		C (EC1.5>25 uM)
Cc1cnc(NC(=O)c2cccc3ccc(-c4cccc(N5CCOCC5)c4)nc23)s1 [Compound 239]	A (Fold activation >200%)	A (EC1.5<1.0 uM)
FC(F)(F)Oc1cccc(-c2ccc3cccc(NCc4cccnc4)c3n2)c1 [Compound 139]		C (EC1.5>25 uM)
O=C(Nc1nccs1)c1c(F)ccc2ccc(-c3cccc(C(F)(F)F)c3)nc12 [Compound 83]	A (Fold activation >200%)	B (EC1.5 1-25 uM)
O=C(Nc1cccc(CN2CCCC2)n1)c1cccc2ccc(-c3cccnc3)nc12 [Compound 230]	A (Fold activation >200%)	B (EC1.5 1-25 uM)
O=C(Nc1ccncn1)c1cccc2ccc(-c3cccc(N4CCOCC4)c3)nc12 [Compound 111]	A (Fold activation >200%)	A (EC1.5<1.0 uM)
O=C(Nc1cccnc1)c1cccc2ncc(-c3cccc(C(F)(F)F)c3)nc12 [Compound 124]	B (Fold Activation <200%)	A (EC1.5<1.0 uM)
O=C(Nc1nc(CN2CCOCC2)cs1)c1cccc2ccc(-c3cccc(C(F)(F)F)c3)nc12 [Compound 177]	A (Fold activation >200%)	A (EC1.5<1.0 uM)
O=C(Nc1ccc(Cl)cn1)c1cccc2ccc(-c3cccc(C(F)(F)F)c3)nc12 [Compound 56]	B (Fold Activation <200%)	A (EC1.5<1.0 uM)
